Where two headings read alike, the source gives them in different places.

In test [1] the test system is YAMC, mp53, Ras and mp53/Ras transformed cells. Kind of test: Immunoblot of autophagy markers p62 and LC3 after drug treatment. Conditions: 10 mM 3-methyladenine (3MA) for 24 hrs. It is filed as cell-based, murine. On the technique in general: A western blot detects proteins with antibodies after separation by electrophoresis.
Description: To identify if the p62 degradation and LC3 conversion is specifically due to autophagy YAMC, mp53, Ras, and mp53/Ras cells were treated with 3-methyladenine, a specific pharmacologic inhibitor of autophagosome formation (FIG. 4.3).
YAMC, vector, mp53, Ras, and mp53/Ras cells were cultured for two days at 39 C in RPMI with 10% FBS medium and gentamicin in collagen-I coated 15 cm dishes. […] Protein concentration was quantified using Bradford reagent (BioRad) and a Genesys 1 0UV spectrophotometer (Spectronic Unicam). […] Proteins were detected with primary antibodies at the following dilutions in PBST with 5% milk at 4 C overnight: HA-tagged Plac8 —1:1000 dilution of HA antibody (Roche), —Tubulin—1:1000 of—Tubulin antibody (Santa Cruz), Plac8 —1:500 of Plac8 antibody (PRF&L, Inc.), Lamp2 —1:5000 of Lamp2 antibody (Abcam), Rab7 —1:1000 Rab7 antibody (Sigma), LC3 —1:2000 of LC3B antibody (Sigma), RhoA—1:1000 RhoA antibody (Santa Cruz), Cathepsin D—1:1000 Cathepsin D antibody (Santa Cruz), p62 —1:5000 of p62 antibody (PROGEN), 3× Flag-tagged proteins—1:1000 dilution of 3× Flag antibody and 1:2500 of HRP-conjugated 3× Flag antibody (Sigma), Rab5a—1:1000 dilution of Rab5 antibody (Abcam), phosphop70S6K (Thr389)—1:1000 dilution of phospho-p70S6K (Thr389) antibody (Cell Signaling), p70S6K—1:1000 dilution of p70S6K antibody (Cell Signaling), Atg12—1:250 Atg12 antibody (Sigma). […]
The test system of test [2] is lymphoma, colon cancer, lung cancer, and pancreatic cancer cells. The following applies: prior studies referred to in the text, cited from earlier work.
Test [3] deals with mp53/Ras transformed cells and CAPAN-2 cells. The test is described as follows: Immunocompromised mouse tumorigenicity assay, cells expressing autophagy modulators. The test is classed as in vivo. The following applies: cells expressing the protein or shRNA vs vector control; 5×10^5 cells per injection; 4 weeks mp53/Ras, 5 weeks CAPAN-2. The method, then: To determine whether cooperative up-regulation of autophagy is required for tumorigenesis Atg12, a gene involved in autophagosome formation, was knocked-down using two independent constructs in mp53/RasV12 and Capan-2 cells. In addition, a genetic rescue experiment was performed by introducing a shRNA resistant form of ATG12 into these cell backgrounds to test for ATG12 specificity of the observed effects. Tumor formation was inhibited by Atg12 KD in both mp53/Ras and CAPAN-2 cell lines and was rescued by expression of the exogenous shRNA resistant Atg12 (FIG. 4.5a, 4.5c).
Cells were cultured on 15 cm dishes for two days without selective antibiotics at 39 C for mp53/Ras cells and at 37 C for HT-29, CAPAN-2, PANC-1, and 5 Panc10.05. Cells were plated at the following densities: mp53/Ras—7.5×10^5, HT-29 —1.5×10^6, CAPAN-2 —4×10^6, PANC—4×10^6, and PANC 10.05—2×10^6. Cells were trypsinized, counted and re-suspended in RPMI medium lacking supplements for mp53/Ras, CAPAN-2, and Panc10.05, and DMEM lacking supplements for HT-29 and PANC-1 at a density of 5×10^5/100 ul for mp53/Ras and CAPAN-2 cells, 1.25×10^5/100 ul for HT-29 cells, 5×10^6/100 ul for PANC-1, 2×10^6/100 ul for Panc10.05. […] Tumor volume was measured every week for 4 weeks for mp53/Ras and HT-29 cells, 5 weeks for CAPAN-2 cells, and 6 weeks for PANC-1.

Test [4] has the same test system. Kind of test: Immunoblot of p62 and LC3 in cells expressing autophagy modulators. It is filed as cell-based. The following applies: cells expressing the protein vs vector control. The text has this: Thus, the effects of Plac8 KD on both tumor formation and autophagy can be suppressed by constitutive activation of Rab7.
Moreover, the molecular machinery employed in autophagosomal/lysosomal fusion, such as Rab7, is required for endosomal/lysosomal fusion, which is also required for tumor formation in some cancers.
To determine if the Plac8 KD-induced loss of tumor formation is specifically due to a loss of autophagy completion, Atg12, a gene required for autophagosomal formation, was overexpressed in Plac8 KD cells.
YAMC, vector, mp53, Ras, and mp53/Ras cells were cultured for two days at 39 C in RPMI with 10% FBS medium and gentamicin in collagen-I coated 15 cm dishes. HT-29, CAPAN-2, PANC-1 and Panc 10.05 cells were cultured for two days at 37 C in maintenance media without selective antibiotics on 15 cm dishes. […] Protein concentration was quantified using Bradford reagent (BioRad) and a Genesys 1 0UV spectrophotometer (Spectronic Unicam). […]

Test [5] relates to mp53/Ras transformed cells. Kind of test: Lamp2/GFP-LC3 colocalization (autophagosomal/lysosomal fusion), mp53/Ras cells. It is filed as cell-based, murine. Conditions: nutrient starved in HBSS 15 minutes. An excerpt: The Plac8 KD dependent accumulation of autophagosomes and autophagosomal biochemical markers can be due to an induction of autophagosome formation (on-rate) or inhibition in autophagosome clearance via autophagosomal/lysosomal fusion (off-rate). […] To explore if Plac8 is required for autophagosomal/lysosmal fusion a GFP-LC3 fusion protein was expressed to label autophagosomes and immunostained for Lamp2, a lysosomal marker. Co-localization of GFP-LC3 and Lamp2 indicates the formation of an autolysosome, or the completion of autophagosomal/lysosomal fusion.
Cells were plated onto collagen-1 coated 22 mm glass coverslips (BD Biosciences) in 6 well plates at 5×10^4 cells per well. […] Cells were analyzed and imaged using a Leica inverted confocal microscope (Lieca).
GFP-LC3 expressing cells were fixed, stained, mounted, and imaged by the methods described in previous section titled Immunofluorescent staining of cells. To quantify GFP-LC3 punctae images were analyzed using the ImageJ plug-in Watershed Segmentation. […] The resulting image was quantified by measuring the mean green and blue signals per image and dividing the blue signal by the total green signal to get the amount of punctae per total GFP-LC3 expressed in the cell. […] To quantify GFP-LC3 colocalization images were analyzed using the ImageJ plug-in Colocalization Finder. […]

`Cn1cnc(N)c2ncnc1-2` [3-methyladenine]: the “p62 and LC3 protein levels” value in test [1] is “p62 and LC3-I increase”; in test [1] (listed as 3MA), “Accumulation of p62 and LC3”.

`CO/C1=C\C(C)=C\[C@@H](C)[C@@H](O)[C@@H](C)C/C(C)=C/C=C/[C@H](OC)[C@@H]([C@@H](C)[C@@H](O)[C@H](C)[C@@]2(O)C[C@@H](O)[C@H](C)[C@@H](C(C)C)O2)OC1=O` [Bafilomycin A1]: the “tumor formation / tumor growth” value in test [2] is listed as “inhibits tumor growth”; in test [2] (listed as bafilomycin A1) it was “tumor inhibitory”; in test [2] (listed as baflomycin A1), “effective at inhibiting tumor formation”.

As to “Rab7 DA: 3× Flag-tagged Rab7 Q67L dominant active mutant, activates autophagosomal/lysosomal fusion”, in test [3], the “tumor formation in nude mice” value is on record as “inhibits tumor formation”.

Take “Rab7 DN: 3× Flag-tagged Rab7 T22N dominant negative mutant, inhibits autophagosomal/lysosomal fusion”: in test [4], the “p62 and LC3 protein levels” value was “accumulation of p62 and LC3”. For the same compound, the “tumor formation in nude mice” value in test [3] is given as “inhibition of tumor formation”. The “inhibition of GFP-LC3/Lamp2 colocalization” value in test [5] is given as 74%.

These data come from US20130184223A1, “METHODS AND COMPOSITIONS RELATED TO MODULATING AUTOPHAGY” (UNIVERSITY OF ROCHESTER, priority 2010, published 2013).
